Melting point, Ki and inhibition data for 25 molecules are collected here from patent publication US8993765B2, “Tetrahydro-azacarboline MCH-1 antagonists, methods of making, and uses thereof” (Albany Molecular Research, Inc., priority 2010, dated 2015).

The target of one data set is human MCH-1 receptor (Homo sapiens (Human), UniProt Q99705). Kind of data set: Binding Assay for Human Melanin-Concentrating Hormone (MCH-1) Receptor. As to conditions: membranes of CHO-K1 cells expressing human MCH-1 receptor; for Ki: radioligand displacement, Ki by Cheng Prusoff equation, read-out: MCH1 Ki. The protocol:
Binding Assay for Human Melanin-Concentrating Hormone (MCH-1) Receptor
Evaluation of the affinity of compounds for the human MCH-1 receptor was accomplished using 4-(3,4,5-tritritiumbenzyloxy)-1-(1-(2-(pyrrolidin-1-yl)ethyl)-1H-indazol-5-yl)pyridin-2(1H)-one and membranes prepared from stable CHO-K1 cells expressing the human MCH-1 receptor obtained from Euroscreen (Batch 1138). Cell membrane homogenates (8.92 μg protein) were incubated for 60 min at 25° C. with […] of the [^3H]-labeled compound in the absence or presence of the test compound in 50 mM Tris-HCl buffer, pH 7.4. Nonspecific binding was determined in the presence of 50 μM 1-(5-(4-cyanophenyl)bicyclo[3.1.0]hexan-2-yl)-3-(4-fluoro-3-(trifluoromethyl)phenyl)-1-(3-(4-methylpiperazin-1-yl)propyl)urea. Following incubation, the samples were filtered rapidly under vacuum through Skatron 11731 filters, pre-soaked in 0.5% polyethylenimine, and washed with ice-cold 50 mM Tris-HCl buffer, pH 7.4, (wash setting 9,9,0) using a Skatron cell harvester. The filters were counted for radioactivity in a liquid scintillation counter (Tri-Carb 2100TR, Packard) using a scintillation cocktail (Ultima Gold MV, Perkin Elmer).
The results are expressed as a percent inhibition of the control radioligand specific binding. The IC50 value (concentration causing a half-maximal inhibition of control specific binding) and Hill coefficient (nH) were determined by non-linear regression analysis of the competition curve using Hill equation curve fitting. The inhibition constant (Ki) was calculated from the Cheng Prusoff equation: (Ki=IC50/(1+(L/KD)), where L=concentration of radioligand in the assay, and KD=affinity of the radioligand for the receptor.
In general terms: In a radioligand displacement assay an active substance lowers the binding of a labelled ligand.

Structures can show the parent of a compound that is named as a salt. Where two headings read alike, the source gives them in different places.

Chain of human MCH-1 receptor (Q99705 whole entry): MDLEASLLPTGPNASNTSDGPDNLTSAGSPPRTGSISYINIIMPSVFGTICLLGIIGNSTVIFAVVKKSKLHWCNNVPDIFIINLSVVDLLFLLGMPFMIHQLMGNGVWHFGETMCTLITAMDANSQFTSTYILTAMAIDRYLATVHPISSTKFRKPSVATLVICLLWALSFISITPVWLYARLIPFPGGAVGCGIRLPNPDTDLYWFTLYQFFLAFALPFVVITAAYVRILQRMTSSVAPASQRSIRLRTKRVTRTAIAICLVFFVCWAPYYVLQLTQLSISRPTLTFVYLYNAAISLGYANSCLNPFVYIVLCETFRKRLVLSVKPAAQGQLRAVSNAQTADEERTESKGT

Consider `O=c1cc(-c2ccc(C(F)(F)F)nc2)ccn1-c1ccn2c3c(nc2c1)CCNC3` (as salt: hydrochloride) [Example 24, 1-(1,2,3,4-Tetrahydropyrido[4′,3′:4,5]imidazo[1,2-a]pyridin-7-yl)-4-(6-(trifluoromethyl)pyridin-3-yl)pyridin-2(1H)-one hydrochloride], for which the melting point (in general, the temperature, or range, at which the solid turns liquid) is 265 °C (dec.). The same measure, in the same setting: as for `O=c1cc(OCc2ccc(C(F)(F)F)nc2)ccn1-c1ccn2c3c(nc2c1)CCNC3` (as salt: hydrochloride) [Example 25, 1-(1,2,3,4-Tetrahydropyrido[4′,3′:4,5]imidazo[1,2-a]pyridin-7-yl)-4-((6-(trifluoromethyl)pyridin-3-yl)methoxy)pyridin-2(1H)-one hydrochloride], the figure is 265 °C (dec.). Regarding `CC1Cc2c(c3ccc(-n4ccc(OCc5ccccc5)cc4=O)nc3n2C)CN1` (single isomer, unassigned; (-)) [Example 17, (−)-4-(Benzyloxy)-1-(7,9-dimethyl-5,7,8,9-tetrahydro-6H-pyrido[3′,4′:4,5]pyrrolo[2,3-b]pyridin-2-yl)pyridin-2(1H)-one hydrochloride], the Ki (commonly the equilibrium dissociation constant of an inhibitor or competing ligand from its target) on human MCH-1 receptor (hydrochloride) was 9.1 nM. Regarding `CC(=O)N1Cc2c(n(C)c3nc(-n4ccc(OCc5ccccc5)cc4=O)ccc23)CC1C` (single isomer, unassigned; enantiomer a) [Example 29, 1-(6-Acetyl-7,9-dimethyl-5,7,8,9-tetrahydro-6H-pyrido[3′,4′:4,5]pyrrolo[2,3-b]pyridin-2-yl)-4-(benzyloxy)pyridin-2(1H)-one (Enantiomer A)], the Ki at human MCH-1 receptor was 81 nM. Still for that read-out and setting: as for `Cn1c2c(c3ccc(-n4ccc(OCc5ccccc5)cc4=O)nc31)CNCC2` [Example 2, 4-(Benzyloxy)-1-(9-methyl-5,7,8,9-tetrahydro-6H-pyrido[3′,4′:4,5]pyrrolo[2,3-b]pyridin-2-yl)pyridin-2(1H)-one dihydrochloride], the figure is 7.1 nM; as for `Cn1c2c(c3ccc(N4CCN(CCc5ccccc5)CC4=O)nc31)CNCC2` [Example 3, 1-(9-Methyl-5,7,8,9-tetrahydro-6H-pyrido[3′,4′:4,5]pyrrolo[2,3-b]pyridin-2-yl)-4-phenethylpiperazin-2-one dihydrochloride], 47 nM. The same measure, in the same setting: as for `Cn1c2c(c3ccc(-n4ccc(OCc5ccc(F)cn5)cc4=O)nc31)CNCC2` [Example 4, 4-((5-Fluoropyridin-2-yl)methoxy)-1-(9-methyl-5,7,8,9-tetrahydro-6H-pyrido[3′,4′:4,5]pyrrolo[2,3-b]pyridin-2-yl)pyridin-2(1H)-one hydrochloride], the figure is 15 nM; as for `Cn1c2c(c3ccc(-n4ccc(-c5ccc(C(F)(F)F)nn5)cc4=O)nc31)CNCC2` [Example 5, 1-(9-Methyl-5,7,8,9-tetrahydro-6H-pyrido[3′,4′:4,5]pyrrolo[2,3-b]pyridin-2-yl)-4-(6-(trifluoromethyl)pyridazin-3-yl)pyridin-2(1H)-one hydrochloride], 105 nM; as for `Cn1c2c(c3ccc(-n4ccc(-c5ccc(C(F)(F)F)nc5)cc4=O)nc31)CNCC2` [Example 6, 1-(9-Methyl-5,7,8,9-tetrahydro-6H-pyrido[3′,4′:4,5]pyrrolo[2,3-b]pyridin-2-yl)-4-(6-(trifluoromethyl)pyridin-3-yl)pyridin-2(1H)-one hydrochloride], 15 nM. The same measure, in the same setting: as for `Cn1c2c(c3ccc(-n4ccc(OCc5ccc(C(F)(F)F)nc5)cc4=O)nc31)CNCC2` [Example 7, 1-(9-Methyl-5,7,8,9-tetrahydro-6H-pyrido[3′,4′:4,5]pyrrolo[2,3-b]pyridin-2-yl)-4-((6-(trifluoromethyl)pyridin-3-yl)methoxy)pyridin-2(1H)-one hydrochloride], the figure is 71 nM. As to `Cn1c2c(c3ccc(-n4ccc(-c5ccc(C(F)(F)F)cn5)cc4=O)nc31)CNCC2` [Example 8, 1-(9-Methyl-5,7,8,9-tetrahydro-6H-pyrido[3′,4′:4,5]pyrrolo[2,3-b]pyridin-2-yl)-4-(5-(trifluoromethyl)pyridin-2-yl)pyridin-2(1H)-one hydrochloride], the Ki on human MCH-1 receptor was determined as 33 nM. Take `CC(=O)N1CCc2c(c3ccc(-n4ccc(-c5ccc(C(F)(F)F)nc5)cc4=O)nc3n2C)C1` [Example 9, 1-(6-Acetyl-9-methyl-5,7,8,9-tetrahydro-6H-pyrido[3′,4′:4,5]pyrrolo[2,3-b]pyridin-2-yl)-4-(6-(trifluoromethyl)pyridin-3-yl)pyridin-2(1H)-one]: the melting point is 238 to 242 °C. In addition, the Ki on human MCH-1 receptor was 78 nM. Consider `Cl.Cn1c2c(c3ccc(-n4ccc(-c5ccc(C(F)(F)F)cc5)cc4=O)nc31)CNCC2` [Example 10, 1-(9-Methyl-5,7,8,9-tetrahydro-6H-pyrido[3′,4′:4,5]pyrrolo[2,3-b]pyridin-2-yl)-4-(4-(trifluoromethyl)phenyl)pyridin-2(1H)-one hydrochloride], for which the melting point is 278 to 281 °C (dec.). On human MCH-1 receptor, the inhibition constant (Ki) was determined as 4.7 nM. For `CC(=O)N1CCc2c(c3ccc(-n4ccc(OCc5ccccc5)cc4=O)nc3n2C)C1` [Example 11, 1-(6-Acetyl-9-methyl-5,7,8,9-tetrahydro-6H-pyrido[3′,4′:4,5]pyrrolo[2,3-b]pyridin-2-yl)-4-(benzyloxy)pyridin-2(1H)-one], the melting point lay in the range of 206 to 208 °C. In addition, the Ki on human MCH-1 receptor amounted to 71 nM. On the same counts, the results for `CC1Cc2c(c3ccc(N4CCN(CCc5ccc(F)cc5)CC4=O)nc3n2C)CN1.Cl` (centres unmarked) [Example 12, 1-(7,9-Dimethyl-5,7,8,9-tetrahydro-6H-pyrido[3′,4′:4,5]pyrrolo[2,3-b]pyridin-2-yl)-4-(4-fluorophenethyl)piperazin-2-one hydrochloride] are 252 to 256 °C and 58 nM. Regarding `Cn1c2c(c3ccc(-n4ccc(OCc5ccc(Cl)cc5Cl)cc4=O)nc31)CNCC2` [Example 15, 4-((2,4-Dichlorophenyl)methoxy)-1-(9-methyl-5,7,8,9-tetrahydro-6H-pyrido[3′,4′:4,5]pyrrolo[2,3-b]pyridin-2-yl)pyridin-2(1H)-one hydrochloride], the Ki on human MCH-1 receptor was determined as 17 nM. Same read-out and setting: as for `O=c1cc(OCc2ccccc2)ccn1-c1ccc2c(c1)nc1n2CCNC1` [Example 18, 4-(Benzyloxy)-1-(1,2,3,4-tetrahydropyrazino[1,2-a]benzimidazol-8-yl)pyridin-2(1H)-one hydrochloride], the figure is 62 nM. In the case of `O=c1cc(-c2ccc(C(F)(F)F)cc2)ccn1-c1ccc2c(c1)nc1n2CCNC1` [Example 20, 1-(1,2,3,4-Tetrahydropyrazino[1,2-a]benzimidazol-8-yl)-4-(4-(trifluoromethyl)phenyl)pyridin-2(1H)-one hydrochloride], at human MCH-1 receptor (@ 1 uM test compound, read-out: MCH1 percent inhibition of control radioligand specific binding), the inhibition (as a rule, the relative decrease from the control value, in per cent) at 1 µM turned out to be 61%. Take `CC(C)N1CCn2c(nc3cc(-n4ccc(OCc5ccccc5)cc4=O)ccc32)C1` [Example 21, 4-(Benzyloxy)-1-(2-(propan-2-yl)-1,2,3,4-tetrahydropyrazino[1,2-a]benzimidazol-8-yl)pyridin-2(1H)-one hydrochloride]: the Ki on human MCH-1 receptor is 94 nM.

For the molecule `O=c1cc(OCc2ccc(F)cn2)ccn1-c1ccn2c3c(nc2c1)CCNC3` [Example 23, 4-((5-Fluoropyridin-2-yl)methoxy)-1-(1,2,3,4-tetrahydropyrido[4′,3′:4,5]imidazo[1,2-a]pyridin-7-yl)pyridin-2(1H)-one hydrochloride], on human MCH-1 receptor, the inhibition constant Ki amounted to 30 nM. For `O=c1cc(-c2ccc(C(F)(F)F)nc2)ccn1-c1ccn2c3c(nc2c1)CCNC3` [Example 24, 1-(1,2,3,4-Tetrahydropyrido[4′,3′:4,5]imidazo[1,2-a]pyridin-7-yl)-4-(6-(trifluoromethyl)pyridin-3-yl)pyridin-2(1H)-one hydrochloride], the inhibitory constant (Ki) at human MCH-1 receptor was 616 nM. On the same count and under the same terms, as for `O=c1cc(OCc2ccc(C(F)(F)F)nc2)ccn1-c1ccn2c3c(nc2c1)CCNC3` [Example 25, 1-(1,2,3,4-Tetrahydropyrido[4′,3′:4,5]imidazo[1,2-a]pyridin-7-yl)-4-((6-(trifluoromethyl)pyridin-3-yl)methoxy)pyridin-2(1H)-one hydrochloride], the figure is 3320 nM. On the same count and under the same terms, as for `O=c1cc(-c2ccc(C(F)(F)F)cc2)ccn1-c1ccn2c3c(nc2c1)CCNC3` [Example 26, 1-(1,2,3,4-Tetrahydropyrido[4′,3′:4,5]imidazo[1,2-a]pyridin-7-yl)-4-(4-(trifluoromethyl)phenyl)pyridin-2(1H)-one hydrochloride], the figure is 23 nM; as for `CC(C)N1CCc2nc3cc(-n4ccc(OCc5ccccc5)cc4=O)ccn3c2C1` [Example 27, 4-(Benzyloxy)-1-(2-(propan-2-yl)-1,2,3,4-tetrahydropyrido[4′,3′:4,5]imidazo[1,2-a]pyridin-7-yl)pyridin-2(1H)-one hydrochloride], 19 nM. Still for that read-out and setting: as for `Cn1c2c(c3ccc(-n4ccc(OCc5ccccc5)cc4=O)nc31)C(=O)NCC2` [Example 28, 4-(Benzyloxy)-1-(9-methyl-5-oxo-5,7,8,9-tetrahydro-6H-pyrido[3′,4′:4,5]pyrrolo[2,3-b]pyridin-2-yl)pyridin-2(1H)-one], the figure is 103 nM.
